Test results published in paper PMC5719405, “Sex-related pharmacokinetic differences and mechanisms of metapristone (RU486 metabolite)” (Scientific Reports, 2017).

What was measured:
human CYP3A4 = human CYP3A4 (Homo sapiens, UniProt P08684); test: Metapristone metabolism by cDNA-expressed recombinant human CYP3A4; settings: 9 µM
HT-29 cells = settings: cited from earlier work
human CYP1A2 = target: T1, human CYP1A2 (Homo sapiens, UniProt P05177); test: Metapristone metabolism by cDNA-expressed recombinant human CYP1A2; assay type: in vitro ADME; settings: 9 µM
T1 construct: made in house; host or cells: insect cells
T1 sequence (P05177 1-516): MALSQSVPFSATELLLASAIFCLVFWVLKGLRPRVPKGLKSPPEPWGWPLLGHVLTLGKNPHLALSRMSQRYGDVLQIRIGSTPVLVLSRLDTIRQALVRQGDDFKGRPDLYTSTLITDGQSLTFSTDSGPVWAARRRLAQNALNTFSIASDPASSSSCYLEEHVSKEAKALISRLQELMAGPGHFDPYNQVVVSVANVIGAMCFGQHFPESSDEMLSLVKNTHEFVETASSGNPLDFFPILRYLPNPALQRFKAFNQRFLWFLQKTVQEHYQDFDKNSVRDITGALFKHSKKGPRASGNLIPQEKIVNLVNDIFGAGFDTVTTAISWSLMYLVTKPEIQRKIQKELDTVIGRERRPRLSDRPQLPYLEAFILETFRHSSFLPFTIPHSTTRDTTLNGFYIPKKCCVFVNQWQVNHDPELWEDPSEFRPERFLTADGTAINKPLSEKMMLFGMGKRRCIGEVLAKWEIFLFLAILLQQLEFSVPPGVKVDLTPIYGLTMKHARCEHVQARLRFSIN
Experimental: To identify CYP450 isomers which were responsible for the sex different metabolism of metapristone, both CYP450 inhibitors and cDNA-expressed recombinant human CYPs were used[11]. […] The reactions of the control groups with control rat liver microsomes (heated to 80 °C for 5 min to inactivate enzymes) to inactivate enzymes or without NADPH were also included. […] The cDNA-expressed recombinant human CYPs were prepared from insect cells transfected with cDNAs encoding for human CYP1A2 or CYP3A4. […] Each reaction was then started by the addition of metapristone (9 µM) with subsequent mixing of each sample by inversion. […] Metapristone were identified by the LC/MS/MS method. Peak areas formed were used for quantitative analyses. Control incubation mixtures included mixtures without inhibitors, and mixtures with untransfected insect cell microsomes used as microsomal control, and mixtures that contained methanol instead of inhibitor (methanol control). Quantitative analyses were performed by comparing the peak areas of the inhibition reactions to their respective methanol controls. The total organic solvent content of the in vitro reaction mixtures was less than 2%.

CYP1A2 = test: Western blotting of rat liver CYP1A2 after 7-day oral metapristone; assay type: in vivo
Experimental: To further confirm CYP1A2 and CYP3A4 are the primary CYP isoforms that metabolize metapristone, we administered oral metapristone (22.5 and 45 mg/kg/day for 7 days) to male and female rats, respectively, and measured the activity of liver CYP1A2 and CYP3A4 by using the western blotting assay. We selected western blot staining density from the controls as the basis (100%) to compare changes in CYP1A2 and CYP3A4 activity after metapristone treatment.
The total microsomal protein was extracted from rat livers prepared by diluting liver microsomal suspension with 1 volume of immunoprecipitation assay lysis buffer (150 mM NaCl, 1% NP-40, 0.5% sodium deoxy-cholic acid, 0.1% SDS, and 50 mM Tris-Cl, pH 7.5) for 15 min and then centrifuged at 13,000 rpm 4 °C for 10 min. Aliquots containing 20 µg of protein were separated by SDS-PAGE on a 10% gradient gel (Invitrogen, USA) and transferred to a PVDF membrane that was blocked with 5% non-fat dry milk in Tris-buffered saline with Tween 20 (200 mM Tris–HCl, 1.37 M NaCl, 0.1% Tween 20, pH 7.6) for 1 h. The membrane was then incubated with rabbit anti-rat CYP1A2 polyclonal antibody (1:2000 dilution), rabbit anti-rat CYP3A4 polyclonal antibody (1:1000 dilution) and glyceraldehyde-3-phosphate dehydrogenase (GAPDH) antibody (1:2000 dilution), overnight at 4 °C. After rinsing five times with buffer TBST at room temperature, the membrane was incubated with horseradish peroxidase (HRP)-labeled anti-rabbit immunoglobulin G (IgG) anti-body (Santa Cruz Biotechnology, USA). The immunoreactive bands were visualized using an enhanced chemiluminescence detection system (ChemiDoc™XRS + , Bio-Rad, Hercules, CA, USA) and quantified by using densitometry Image J 1.41 software.

human CYP3A4, sequence (P08684 whole entry): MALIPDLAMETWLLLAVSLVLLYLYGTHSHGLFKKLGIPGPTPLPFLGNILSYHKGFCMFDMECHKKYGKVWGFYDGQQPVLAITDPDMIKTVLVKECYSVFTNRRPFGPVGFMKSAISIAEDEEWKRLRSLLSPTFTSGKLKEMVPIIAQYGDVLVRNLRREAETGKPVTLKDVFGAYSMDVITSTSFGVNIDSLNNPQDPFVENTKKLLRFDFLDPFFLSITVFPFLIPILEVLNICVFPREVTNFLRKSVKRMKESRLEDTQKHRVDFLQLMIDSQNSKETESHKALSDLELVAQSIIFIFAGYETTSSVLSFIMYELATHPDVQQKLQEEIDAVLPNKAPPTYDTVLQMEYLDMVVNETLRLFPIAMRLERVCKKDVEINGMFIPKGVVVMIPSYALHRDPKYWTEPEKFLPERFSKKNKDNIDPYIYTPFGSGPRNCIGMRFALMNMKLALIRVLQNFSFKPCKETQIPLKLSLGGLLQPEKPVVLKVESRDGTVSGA

metapristone remaining (human CYP3A4; 120 min incubation with CYP3A4, absence of inhibitor): 16.3% | metapristone unchanged (human CYP3A4; 120 min incubation with CYP3A4, plus ketoconazole 10 µM): 72.9% | metapristone remained (human CYP1A2; 120 min incubation with CYP1A2, absence of inhibitor): 47.9% | CYP1A2 western blot staining density relative to controls (100%) (CYP1A2; female rats, 22.5 mg/kg/day p.o. for 7 days): 120 ± 16% | CYP1A2 western blot staining density relative to controls (100%) (CYP1A2; female rats, 45 mg/kg/day p.o. for 7 days): 147 ± 21% | CYP1A2 western blot staining density relative to controls (100%) (CYP1A2; male rats, 22.5 mg/kg/day p.o. for 7 days): 156 ± 19% | CYP1A2 western blot staining density relative to controls (100%) (CYP1A2; male rats, 45 mg/kg/day p.o. for 7 days): 163 ± 12%
Compound: CC#C[C@]1(O)CC[C@H]2[C@@H]3CCC4=CC(=O)CCC4=C3[C@@H](c3ccc(NC)cc3)C[C@@]21C [metapristone, N-monodemethyl mifepristone]
adhesion of HT-29 cells to endothelial cells (HT-29 cells): interrupted adhesion | metapristone survived (human CYP1A2; 120 min incubation with CYP1A2, plus α-naphthoflavone 10 µM): 89.9%
